{
  "source": "paper PMC6006164",
  "about": "“Natural cyclopeptide RA-V inhibits the NF-κB signaling pathway by targeting TAK1” (Cell Death & Disease, 2018)",
  "tested_on": "p65 phosphorylation and IκBα phosphorylation",
  "assay": "Western blot in HEK293T cells transfected with TRAF2, MyD88 or IKKβ",
  "type": "cell-based",
  "conditions": "RA-V 48 h",
  "method": "To determine where RA-V acts in this pathway, TRAF2, MyD88, IKKβ, or p65 plasmid was transiently transfected into HEK293T cells together with the 5 × κB-lucieferase and pTK-Renilla reporters. […] Western blots were performed to investigate the effect of RA-V on NF-κB-associated proteins in HEK293T cells transfected with the TRAF2, MyD88, or IKKβ plasmid. […] Moreover, we used a computational method to predict where RA-V is likely to act in this pathway.\nFig. 3 RA-V represses NF-κB activation upstream of the IKK protein complex. a RA-V inhibited the TRAF2- and MyD88-induced expression of the NF-κB reporter in a dose-dependent manner. The indicated plasmids were transfected into HEK293T cells together with the 5 × κB-luciferase and pTK-Renilla reporters. Twenty-four hours after transfection, the cells were incubated with various concentrations of RA-V for 48 h before luciferase assays were performed. b RA-V inhibited TRAF2- and MyD88-induced p65 phosphorylation and IκBα phosphorylation in a dose-dependent manner. […]\nFor western blot analysis, the samples were equally subjected to sodium dodecyl sulfate polyacrylamide gel electrophoresis (SDS-PAGE) and transferred to polyvinylidene difluoride membranes (Millipore). […] The protein bands were detected with the SuperSignal West Pico Chemiluminescent Substrate (Pierce).",
  "data": [
    {"substance": "RA-V", "values": [
      {"measurement": "p65 and IκBα phosphorylation in cells transfected with IKKβ plasmid", "result": "no effect"},
      {"measurement": "p65 phosphorylation and IκBα phosphorylation in cells overexpressing TRAF2 or MyD88", "result": "dose-dependently inhibited"}
    ]}
  ]
}
